Measured values published in PMC7795662, “Alkaloids with Anti-Onchocercal Activity from Voacanga africana Stapf (Apocynaceae): Identification and Molecular Modeling” (Molecules, 2020).
Read-outs that look alike come from different tables or passages of the source.

What was measured:
[1] = system: Monkey kidney epithelial cells (LLC-MK2); experiment: Cytotoxicity on monkey kidney epithelial cells, microscopic; assay type: cell-based; settings: read-out: IC50 Monkey Kidney Cells (LLC-MK2)
Procedure: Monkey kidney epithelial cells (LLC-MK2) (ATCC, Manassas, VA, USA) were cultured at 37 °C in humidified air with 5% CO2 in a Hera Cell-150 incubator (Thermo Electron, Karlsruhe, Germany) until the cell layer was almost confluent. The cell suspension was dispensed into 96-well micro titer plates (200 µL/well) and kept in the incubator for 3–5 days for cells to grow and become fully confluent. These cells served as feeder layers for the Mf assays and were also used for cytotoxicity studies.
Cytotoxicity of the pure compounds with anti-onchocercal activities was assessed on LLC-MK2 cells, microscopically, on day 5 of the Mf assay. Living cells were flattened out and attached to the culture plate, while dead cells were rounded up and detached from the plate. The IC50 values for these cells were estimated from the morphological deformation data.

[2] = system: Onchocerca ochengi adult female worms; experiment: O. ochengi adult female worm viability, MTT/formazan assay; assay type: cell-based; settings: for killing at 30 µM: read-out: % Adult Female Worm Death after 120 h; for activity on adult female worms (in words): biochemical assessment at 30 μM; for IC100 Adult Female Worm: secondary screen
Procedure: (§1) The isolation of O. ochengi adult worms was performed as described previously by Cho-Ngwa et al.. Briefly, fresh pieces of umbilical cattle skin with palpable nodules bought from butchery in Douala, Cameroon were washed, drained and sterilized with 70% ethanol. The worms were carefully scraped out of the nodules as single masses and temporarily submerged in 1 mL complete culture medium, CCM [RPMI-1640 (Sigma-Aldrich, St. Louis, MO, USA) supplemented with 25 mM HEPES, 2 g/L sodium bicarbonate, 2 mM L-glutamine, 5% newborn calf serum (SIGMA, St. Louis, MO, USA), 150 units/mL penicillin, 150 µg/mL streptomycin and 0.5 µg/mL amphotericin B (SIGMA, St. Louis, MO, USA), pH 7.4)] using 24-well plates. The adult worms were incubated in the culture medium overnight in a CO2 incubator, during which period the male worms migrated out of the nodular masses. Only wells containing viable worms received treatment with test compounds. Damaged worms and worms from putrefied nodules were discarded. The viability of worms retained for the assay was ascertained by visual and microscopic examination of adult male worm motility using an inverted microscope.
(§2) The compounds were tested on […] at a single concentration of 30 μM, in duplicate wells. […] The female worms were removed and incubated in 500 μL of 0.5 μg/mL MTT for the last 30 min of incubation. Inhibition of formazan formation from MTT directly correlates with worm death. The worms were blotted on absorbent paper and observed visually for blue coloration against a white background. […] Auranofin at 10 μM, which had previously shown activity against O. ochengi adult worms and Mf, was used as a positive control, while negative control wells received the diluent, 2% DMSO only, previously shown to have no effect on parasite viability. The solvent DMSO (2%) was used as a negative control. […] Furthermore, the toxicity of DMSO decreases with dilution.
(§3) The pure compounds with 100% activity at primary screens were re-tested as described under primary screens, in order to determine the IC50 values. The IC50 assays were performed in triplicate and each experiment repeated for confirmation. The means of all activities at a concentration were calculated and used in the statistical analyses. GraphPadPrism version 6.0 (GraphPad Software, San Diego, CA, USA) was used to generate dose response curves from which the IC50 values were obtained.

[3] = system: Onchocerca ochengi adult male worms; experiment: O. ochengi adult male worm motility assay, primary and secondary screens; assay type: cell-based; settings: for IC50: read-out: IC50 Adult Male Worm; for effect on motility of adult male worms (in words): dose-dependent manner; for SI Adult Male Worm: selectivity index = IC50 on LLC-MK2 cells (CC50) / IC50 on parasites
Procedure: as §1, §2
Adult male worm motility was evaluated with the aid of an inverted microscope.
as §3

[4] = system: Onchocerca ochengi microfilariae; experiment: O. ochengi microfilariae (Mf) motility assay, primary and secondary screens; assay type: cell-based; settings: for inhibition at 30 µM: 24 h, read-out: % Mf Motility Reduction after 24 h; for IC50: read-out: IC50 Mf; for effect on motility of microfilariae (in words): dose-dependent manner; for SI Mf: selectivity index = IC50 on LLC-MK2 cells (CC50) / IC50 on parasites
Procedure: Briefly, Mf were prepared using the method described by Cho-Ngwa et al., with slight modifications. A few skin snips were obtained from different locations and incubated in aliquots of culture medium for 15 min, after which the emergent Mf were qualified and quantified using an inverted microscope and standard atlases. The leftover pieces of skin were shaved, rinsed, sterilized with 70% ethanol and sliced into thin slivers. The slivers were incubated in CCM for 2 h, and the emergent highly motile O. ochengi Mf were concentrated by centrifugation. The Mf were transferred to 96-well micro titer plates (15 Mf/100 μL/well) containing a fully confluent LLC-MK2 cell layer in 100 μL of CCM. This was monitored for viability and sterility for 24 h before addition of test and control compounds.
The biological assays were conducted in duplicate in the 96-well microtiter plates. The Mf were incubated with the drug for 120 h in a total of 200 μL of medium. Mf viability was assessed by microscopy once every day and motility inhibition scores were recorded. […] Motility inhibition correlates to drug activity. The positive control drug was amorcazine at 30 μM, and negative control was the diluent (DMSO).
Compounds showing 100% activity in the primary screens were re-tested as described under primary screens to determine the IC50 values. All assays were repeated at least once. The selectivity index (SI) of each extract was calculated as the ratio of the IC50 of the extract on the mammalian cell (termed CC50) to the IC50 on parasites.

[5] = system: Onchocerca ochengi adult male worms; experiment: O. ochengi adult male worm motility assay, primary and secondary screens; assay type: cell-based; settings: for inhibition at 30 µM: Onchocerca ochengi, 24 h, read-out: % Adult Male Worm Motility Reduction after 24 h
Onchocerca ochengi = system: Onchocerca ochengi; parameters: method as in earlier work; settings: from stem bark of V. africana; cited from earlier work
[6] = Primates, LLC-MK2, 120 h, cytotoxicity, day 5, estimated from morphological deformation
[7] = Onchocerca ochengi, primary screen, 30 μM
[8] = Onchocerca ochengi, secondary screen, motility

Row | Compound | IC50 [1, 6] [µM] | killing at 30 µM ([2]; Onchocerca ochengi, 120 h) [%] | activity on adult female worms (in words) [2] | IC100 Adult Female Worm [2] [µM] | IC50 ([3]; Onchocerca ochengi) [µM] | effect on motility of adult male worms (in words) [3] | IC100 Adult Male Worm ([3]; secondary screen) [µM] | SI Adult Male Worm [3] | IC50 [4, 8] [µM] | effect on motility of microfilariae (in words) [4] | IC100 Mf ([4]; secondary screen) [µM] | SI Mf [4] | inhibition at 30 µM [5] [%] | inhibition at 30 µM ([4]; Onchocerca ochengi) [%] | further results
1 | COC(=O)[C@@]12C[C@@H]3C[C@H]([C@H](C)O)[C@@H]1N(CCc1c2[nH]c2ccc(OC)cc12)C3 [Compound 3, voacristine] | ≥ 30 | 50 | moderately active | >30 | 8.07 | inhibit the motility | 16.14 | 3.71 | 4.34 | inhibit the motility | 8.68 | 6.91 | 100 |  | inhibition at 30 µM [4, 7]: 100%
2 | CC[C@H]1C[C@@H]2CN3CCc4c([nH]c5ccccc45)[C@](C(=O)OC)(C2)[C@H]13 [Compound 4, coronaridine] | ≥ 30 | 50 | moderately active | >30 | 8.68 | inhibit the motility | 17.36 | 3.45 | 4.21 | inhibit the motility | 8.42 | 7.13 | 100 |  | inhibition at 30 µM [4, 7]: 100%
3 | voacamine [Compound 7] |  |  | moderately active | >30 |  | inhibit the motility | 10 |  |  | inhibit the motility | 10 |  |  |  | IC50 ([1]; cytotoxicity, day 5, estimated from morphological deformation): ≥ 30 µM; activity against Onchocerca ochengi (in words) (Onchocerca ochengi): showing activity; % Adult Female Worm Death after 120 h ([2]; primary screen, 30 μM, corresponds to % inhibition of formazan formation): 65%; IC50 ([3]; secondary screen, motility): 3.45 µM; % Mf Motility Reduction after 24 h ([4]; primary screen, 30 μM): 100%; IC50 ([4]; secondary screen, motility): 2.49 µM; % Adult Male Worm Motility Reduction after 24 h ([5]; primary screen, 30 μM): 100%
4 | CC[C@H]1C[C@@H]2C[C@H]3c4[nH]c5cc(OC)ccc5c4CC[N@@](C2)[C@@H]13 [Compound 5, tabernanthine] |  | 0 | almost inactive |  |  | almost inactive |  |  |  | almost inactive |  |  | 0 | 0 | 
5 | CC(=O)OC[C@H]1O[C@@H]([S-])[C@H](OC(C)=O)[C@@H](OC(C)=O)[C@@H]1OC(C)=O.CCP(CC)CC.[Au+] [Auranofin, reference compound] |  |  |  |  |  |  |  |  |  |  |  |  |  |  | % Adult Female Worm Death after 120 h ([2]; positive control, 10 μM, % inhibition of formazan formation): 100%; % Mf Motility Reduction after 24 h ([4]; positive control, 10 μM): 100%; % Adult Male Worm Motility Reduction after 24 h ([5]; positive control, 10 μM): 100%
6 | C/C=C1\CN(C)C2Cc3c([nH]c4ccccc34)[C@@H](c3cc4[nH]c5c(c4cc3OC)CCN3CC4C[C@H](CC)C3[C@@]5(C(=O)OC)C4)CC1C2C(=O)OC (stereo partly shown) [Compound 1, voacamine A] | ≥ 30 | 65 | moderately active | >30 | 4.45 | inhibit the motility | 8.90 | 6.74 | 3.69 | inhibit the motility | 7.38 | 8.13 | 100 | 100 | 
7 | Ivermectin [reference compound] |  |  |  |  |  |  |  |  |  |  |  |  |  |  | % Mf Motility Reduction after 24 h ([4]; positive control, 10 μg/mL): 100%
8 | COc1ccc2[nH]c3c(c2c1)CCN1CC2CC3C1C([C@H](C)O)C2 (stereo partly shown) [Compound 6, iboxygaine] |  | 50 | moderately active | >30 | 9.07 | inhibit the motility | 18.14 | 3.30 |  | inhibit the motility | 9.44 | 6.35 | 100 | 100 | IC50 ([1]; Primates, LLC-MK2, 120 h): ≥ 30 µM; IC50 ([4]; Onchocerca ochengi): 4.72 µM
9 | C/C=C1/CN(C)C2Cc3c([nH]c4ccccc34)[C@@H](c3cc4[nH]c5c(c4cc3OC)CCN3CC4CC([C@H](C)O)C3[C@@]5(C(=O)OC)C4)CC1C2C(=O)OC (stereo partly shown) [Compound 8, voacorine] |  | 50 | moderately active | >30 | 3.45 | inhibit the motility | 6.90 | 8.69 |  | inhibit the motility | 4.98 | 12.04 | 100 | 100 | IC50 ([1]; Primates, LLC-MK2, 120 h): ≥ 30 µM; IC50 ([4]; Onchocerca ochengi): 2.49 µM
10 | CN1CCN(C(=S)Nc2ccc(Nc3ccc([N+](=O)[O-])cc3)cc2)CC1 [amocarzine, reference compound] |  |  |  |  |  |  |  |  |  |  |  |  |  |  | inhibition at 10 µM ([2]; Onchocerca ochengi, 120 h, read-out: inhibition of formazan formation in adult female worms): 100%
11 | CC[C@H]1CC2CN3CCc4c([nH]c5ccc(OC)cc45)[C@](C(=O)OC)(C2)[C@H]13 (stereo in doubt) [Compound 2, voacangine] | ≥ 30 | 100 | moderately active | >30 | 9.07 | inhibit the motility | 20 | 3.30 | 5.49 | inhibit the motility | 10 | 5.46 | 100 |  | activity against Onchocerca ochengi (in words) (Onchocerca ochengi): showing activity; inhibition at 30 µM [4, 7]: 100%
